In one series the test system is Uromyces appendiculatus. Kind of series: Example G: in vivo preventive test on Uromyces appendiculatus (bean rust). The following applies: bean plants; for protection: summary over doses of 500 ppm and 100 ppm; for Efficacy: table G2. The protocol:
Example G: In Vivo Preventive Test on Uromyces appendiculatus (Bean Rust) […] Bean plants (“Saxa” variety), sown in starter cups on a 50/50 peat soil pozzolana substrate and grown at 24° C., are treated at the 2 leaf stage (9 cm height) by spraying with the active ingredient prepared as described above. Plants, used as controls, are treated with the mixture of acetone/tween/DMSO/water not containing the active material. After 24 hours, the plants are contaminated by spraying the leaves with an aqueous suspension of Uromyces appendiculatus spores (150 000 spores per mL). The spores are collected from infected plants and are suspended in water containing 2.5 mL/L of Tween 80 at 10%. The contaminated bean plants are incubated for 24 hours at 20° C. and at 100% relative humidity, and then for 10 days at 20° C. and at 70-80% relative humidity. Grading (% of efficacy) is carried out 11 days after the contamination, in comparison with the control plants.

The subject of a further series is Pyrenophora teres. Put plainly: Example N: in vivo preventive test on Pyrenophora teres (barley). Particulars: table N; 500 ppm; barley plants; grading 14 days after contamination. The protocol: Example N: In Vivo Preventive Test on Pyrenophora teres (Barley) […] Barley plants (“Plaisant” variety), sown in starter cups on a 50/50 peat soil pozzolana substrate and grown at 22° C., are treated at the 1 leaf stage (10 cm height) by spraying with the active ingredient prepared as described above. Plants, used as controls, are treated with the mixture of acetone/tween/DMSO/water not containing the active material. After 24 hours, the plants are contaminated by spraying the leaves with an aqueous suspension of Pyrenophora teres spores (12 000 spores per mL). The spores are collected from a 12-day-old culture. The contaminated barley plants are incubated for 48 hours at 20° C. and at 100% relative humidity, and then for 12 days at 20° C. at 70-80% relative humidity. Grading (% of efficacy) is carried out 14 days after the contamination, in comparison with the control plants.

Series [1] in a line: log P by HPLC on reversed-phase column (EEC Directive 79/831 Annex V.A8). The format is physicochemical. Particulars: for logP: Table 1. How it is done:
In table 1, the log P values were determined in accordance with EEC Directive 79/831 Annex V.A8 by HPLC (High Performance Liquid Chromatography) on a reversed-phase column (C 18), using the method described below: Temperature: 40° C.; Mobile phases: 0.1% aqueous formic acid and acetonitrile; linear gradient from 10% acetonitrile to 90% acetonitrile. Calibration was carried out using unbranched alkan-2-ones (comprising 3 to 16 carbon atoms) with known log P values (determination of the log P values by the retention times using linear interpolation between two successive alkanones). lambda-max-values were determined using UV-spectra from 200 nm to 400 nm and the peak values of the chromatographic signals.

[2] abbreviates: HPLC C18, 40° C., 0.1% aqueous formic acid and acetonitrile gradient.
The mark [3] stands for this setting: reversed-phase C18 HPLC column, Table 2 (amines IIf), HPLC C18, 40° C., 0.1% aqueous formic acid and acetonitrile gradient, read-out: logP.

The source of these data is patent US9686985B2, “Fungicide N-cycloalkyl-N-bicyclicmethylene-carboxamide derivatives” (BAYER INTELLECTUAL PROPERTY GMBH, priority 2012, dated 2017).

Where two headings read alike, the source gives them in different places.

On to `Cn1cc(C(=O)N(CC2CCc3ccccc32)C2CC2)c(C(F)F)n1` (stereo not shown) [CMP1, N-cyclopropyl-3-(difluoromethyl)-N-(2,3-dihydro-1H-inden-1-ylmethyl)-1-methyl-1H-pyrazole-4-carboxamide, reference compound], for which the protection result in the series on Uromyces appendiculatus is given as “high (at least 80%) to no protection”. Moreover, the Efficacy in the series on Uromyces appendiculatus (dose 100 ppm) is given as 0%; in the series with Uromyces appendiculatus (dose 500 ppm) it was 13%.

In the case of `Cc1cccc2c1CCC2CN(C(=O)c1cn(C)nc1C(F)F)C1CC1` (stereo not shown) [CMP2, N-cyclopropyl-3-(difluoromethyl)-1-methyl-N-[(4-methyl-2,3-dihydro-1H-inden-1-yl)methyl]-1H-pyrazole-4-carboxamide, reference compound], the protection entry in the series on Uromyces appendiculatus is on record as “high (at least 80%) to no protection”. For the same compound, the Efficacy in the series on Uromyces appendiculatus (dose 100 ppm) amounted to 0%; in the series with Uromyces appendiculatus (dose 500 ppm), 80%.

With `Cc1ccc2c(c1)CCC2CN(C(=O)c1cn(C)nc1C(F)F)C1CC1` (stereo not shown) [CMP3, N-cyclopropyl-3-(difluoromethyl)-1-methyl-N-[(5-methyl-2,3-dihydro-1H-inden-1-yl)methyl]-1H-pyrazole-4-carboxamide, reference compound], in the series with Uromyces appendiculatus, the protection result is recorded as “high (at least 80%) to no protection”. Moreover, the Efficacy in the series with Uromyces appendiculatus (dose 100 ppm) is listed as 0%; in the series with Uromyces appendiculatus (dose 500 ppm) it was 34%.

For `Cn1cc(C(=O)N(CC2CCc3c(F)cccc32)C2CC2)c(C(F)F)n1` (stereo not shown) [CMP4, N-cyclopropyl-3-(difluoromethyl)-N-[(4-fluoro-2,3-dihydro-1H-inden-1-yl)methyl]-1-methyl-1H-pyrazole-4-carboxamide, reference compound], in the series on Uromyces appendiculatus, the protection result is recorded as “high (at least 80%) to no protection”. In addition, the Efficacy is 0% in the series on Uromyces appendiculatus (dose 100 ppm) and 6% with Uromyces appendiculatus (dose 500 ppm).

As for `Cn1cc(C(=O)N(CC2CC(C)(C)c3ccccc32)C2CC2)c(C(F)F)n1` (stereo not shown) [CMP5, N-cyclopropyl-3-(difluoromethyl)-N-[(3,3-dimethyl-2,3-dihydro-1H-inden-1-yl)methyl]-1-methyl-1H-pyrazole-4-carboxamide, reference compound], the protection result in the series on Uromyces appendiculatus is on record as “high (at least 80%) to no protection”. Besides, the Efficacy in the series with Uromyces appendiculatus (dose 100 ppm) is listed as 31%.

Turning to `Cn1cc(C(=O)N(CC2CCc3cc(Cl)ccc32)C2CC2)c(C(F)F)n1` (stereo not shown) [CMP6, N-[(5-chloro-2,3-dihydro-1H-inden-1-yl)methyl]-N-cyclopropyl-3-(difluoromethyl)-1-methyl-1H-pyrazole-4-carboxamide, reference compound], the protection entry in the series with Uromyces appendiculatus is recorded as “high (at least 80%) to no protection”. In addition, the Efficacy was determined as 0% in the series with Uromyces appendiculatus (dose 100 ppm) and 19% in the series on Uromyces appendiculatus (dose 500 ppm).

Turning to `Cn1cc(C(=O)N(CC2CCc3cccc(Cl)c32)C2CC2)c(C(F)F)n1` (stereo not shown) [CMP7, N-[(7-chloro-2,3-dihydro-1H-inden-1-yl)methyl]-N-cyclopropyl-3-(difluoromethyl)-1-methyl-1H-pyrazole-4-carboxamide, reference compound], in the series with Uromyces appendiculatus, the protection entry is listed as “high (at least 80%) to no protection”. Further, the Efficacy in the series with Uromyces appendiculatus (dose 100 ppm) and with Uromyces appendiculatus (dose 500 ppm) was 0% in each case.

Regarding `Cn1nc(C(F)F)c(C(=O)N(CC2CCc3cccc(Cl)c32)C2CC2)c1Cl` (stereo not shown) [I.15], in the series on Pyrenophora teres, the Efficacy was 71%. In series [1] (setting [2]), the log partition coefficient (logP) is 3.96.

In series [1] (setting [2]), `Cn1nc(C(F)F)c(C(=O)N(CC2CCc3cccc(Br)c32)C2CC2)c1Cl` (stereo not shown) [I.22] came in with a log partition coefficient (logP) of 4.08.

`Cn1nc(C(F)F)c(C(=O)N(CC2CCCc3cccc(Cl)c32)C2CC2)c1Cl` (stereo not shown) [I.29] had an Efficacy with Pyrenophora teres of 88%. This compound had a log partition coefficient (logP) in series [1] (setting [2]) of 4.26.

With `Cn1nc(C(F)F)c(C(=O)N(CC2CCOc3ccccc32)C2CC2)c1Cl` (stereo not shown) [I.32], in the series with Pyrenophora teres, the Efficacy is 88%. Also, the logP in series [1] (setting [2]) turned out to be 3.17.

For the compound `Cc1cc(C)c2c(c1)C(CN(C(=O)c1c(C(F)F)nn(C)c1F)C1CC1)CCC2` (stereo not shown) [I.37, N-cyclopropyl-3-(difluoromethyl)-N-[(5,7-dimethyl-1,2,3,4-tetrahydronaphthalen-1-yl)methyl]-5-fluoro-1-methyl-1H-pyrazole-4-carboxamide], the chromatographic logP in series [1] came to 4.44.

In series [1] (setting [2]), `COc1cccc2c1CCCC2CN(C(=O)c1c(C(F)F)nn(C)c1F)C1CC1C` (stereo not shown) [I.38] showed a logP of 4.06.

In series [1] (setting [2]), `Cn1nc(C(F)F)c(C(=O)N(CC2(C)CCCc3ccccc32)C2CC2)c1F` (stereo not shown) [I.39] yielded a logP of 3.96.

For `c1ccc2c(c1)CCC2CNC1CC1` (stereo not shown) [IIf.1, N-(2,3-dihydro-1H-inden-1-ylmethyl)cyclopropanamine], the chromatographic logP in series [1] amounted to 0.75.

As for `Cc1cccc2c1CCC2CNC1CC1` (stereo not shown) [IIf.2, N-[(4-methyl-2,3-dihydro-1H-inden-1-yl)methyl]cyclopropanamine], the chromatographic logP in series [1] turned out to be 1.

Consider `Cc1ccc2c(c1)CCC2CNC1CC1` (stereo not shown) [IIf.3, N-[(5-methyl-2,3-dihydro-1H-inden-1-yl)methyl]cyclopropanamine], for which the chromatographic logP in series [1] turned out to be 0.95.

The compound `Fc1cccc2c1CCC2CNC1CC1` (stereo not shown) [IIf.4, N-[(4-fluoro-2,3-dihydro-1H-inden-1-yl)methyl]cyclopropanamine] yielded a chromatographic logP in series [1] of 0.82.

In series [1], `CC1(C)CC(CNC2CC2)c2ccccc21` (stereo not shown) [IIf.5, N-[(3,3-dimethyl-2,3-dihydro-1H-inden-1-yl)methyl]cyclopropanamine] displayed a chromatographic logP of 1.12.

Take `Clc1ccc2c(c1)CCC2CNC1CC1` (stereo not shown) [IIf.6, N-[(5-chloro-2,3-dihydro-1H-inden-1-yl)methyl]cyclopropanamine]: the chromatographic logP in series [1] was found to be 1.11.

Regarding `Clc1cccc2c1C(CNC1CC1)CC2` (stereo not shown) [IIf.7, N-[(7-chloro-2,3-dihydro-1H-inden-1-yl)methyl]cyclopropanamine], the chromatographic logP in series [1] is 0.95.

The compound `FC(F)(F)c1ccc2c(c1)C(CNC1CC1)CC2` (stereo not shown) [IIf.8, N-{[6-(trifluoromethyl)-2,3-dihydro-1H-inden-1-yl]methyl}cyclopropanamine] yielded a chromatographic logP in series [1] of 1.25.

`Clc1cc(Cl)c2c(c1)C(CNC1CC1)CC2` (stereo not shown) [IIf.9, N-[(4,6-dichloro-2,3-dihydro-1H-inden-1-yl)methyl]cyclopropanamine] showed a chromatographic logP in series [1] of 1.38.

On to `Brc1cccc2c1C(CNC1CC1)CC2` (stereo not shown) [IIf.10, N-[(7-bromo-2,3-dihydro-1H-inden-1-yl)methyl]cyclopropanamine], for which the chromatographic logP in series [1] came out at 1.08.

Regarding `CC1(CNC2CC2)CCCc2ccccc21` (stereo not shown) [IIf.11, N-[(1-methyl-1,2,3,4-tetrahydronaphthalen-1-yl)methyl]cyclopropanamine], the chromatographic logP in series [1] is 1.1.

Regarding `CC1CCC(CNC2CC2)c2ccccc21` (stereo not shown) [IIf.12, N-[(4-methyl-1,2,3,4-tetrahydronaphthalen-1-yl)methyl]cyclopropanamine], the chromatographic logP in series [1] was found to be 1.22.

For `Cc1cc(C)c2c(c1)C(CNC1CC1)CCC2` (stereo not shown) [IIf.13, N-[(5,7-dimethyl-1,2,3,4-tetrahydronaphthalen-1-yl)methyl]cyclopropanamine], the chromatographic logP in series [1] was found to be 1.75.

Consider `COc1cccc2c1CCCC2CNC1CC1` (stereo not shown) [IIf.14, N-[(5-methoxy-1,2,3,4-tetrahydronaphthalen-1-yl)methyl]cyclopropanamine], for which the chromatographic logP in series [1] is 1.28.

In series [1], `Clc1cccc2c1C(CNC1CC1)CCC2` (stereo not shown) [IIf.15, N-[(8-chloro-1,2,3,4-tetrahydronaphthalen-1-yl)methyl]cyclopropanamine] registered a chromatographic logP of 1.57.

In series [1], `c1ccc2c(c1)CCCCC2CNC1CC1` (stereo not shown) [IIf.16, N-(6,7,8,9-tetrahydro-5H-benzo[7]annulen-5-ylmethyl)cyclopropanamine] returned a chromatographic logP of 1.17.

Regarding `c1ccc2c(c1)CSCC2CNC1CC1` (stereo not shown) [IIf.17, N-(3,4-dihydro-1H-isothiochromen-4-ylmethyl)cyclopropanamine], the chromatographic logP in series [1] (setting [3]) was 0.86.

On to `Fc1ccc2c(c1)C(CNC1CC1)CCS2` (stereo not shown) [IIf.18, N-[(6-fluoro-3,4-dihydro-2H-thiochromen-4-yl)methyl]cyclopropanamine], for which the chromatographic logP in series [1] (setting [3]) worked out at 1.05.

Take `Clc1ccc2c(c1)C(CNC1CC1)CCS2` (stereo not shown) [IIf.19, N-[(6-chloro-3,4-dihydro-2H-thiochromen-4-yl)methyl]cyclopropanamine]: in series [1] (setting [3]), the chromatographic logP was determined as 1.26.

The logP is a log measure of how a compound divides between an organic and an aqueous phase. Low readings indicate a more hydrophilic compound, high ones a more lipophilic compound.
